# Test results: article PMC8290497, “Taxifolin, an Inhibitor of Sortase A, Interferes With the Adhesion of Methicillin-Resistant Staphylococcal aureus” (Frontiers in Microbiology, 2021)
# Key:
# [1] = biological target: T1, SrtA (Staphylococcus aureus, UniProt Q2FV99); assay: Reversibility of SrtA inhibition (10 × IC50, dilution, FRET assay); format: biochemical; conditions: SrtA treated with 10-fold IC50 of Tax then diluted; compared with control group (DMSO)
# T1 construct: 6xHis; made in house; host or cells: E. coli BL21 (DE3), plasmid pET28a-SrtA
# Description: To identify novel inhibitors of SrtA, an in-house library containing 420 natural compounds was screened, using a FRET assay. […] To further clarify the interacting way of SrtA and Tax, recombinant SrtA was reacted with Tax at a concentration of 10-fold IC50. A total of 85.80 ± 0.67% of SrtA activity was subsequently recovered, compared with the control group (DMSO) (Figure 1C).
# FIGURE 1 Inhibition of SrtA transpeptidation. (A) Chemical structure of Tax. (B) Tax inhibits SrtA cleavage of a fluorogenic peptide substrate (Abz-LPATG-Dnp-NH2) in a dose-dependent manner in vitro. Each reaction condition was assayed in triplicate from which the IC50 was determined. (C) Recombinant SrtA was treated with 10 × IC50 of Tax and then diluted, after which transpeptidation activity was measured using a FRET assay. Untreated SrtA (Control) represented 100% activity.
# [2] = tested on: S. aureus biofilm formation; assay: Biofilm formation assay (crystal violet); format: cell-based, Staphylococcus aureus; conditions: coculture with 200 μM Tax, 24 h
# Protocol: Bacterial cultures grown overnight were diluted 1:100 in BHI medium supplemented with 3% NaCl and 0.5% glucose. A 200 μL aliquot of each diluted culture was added to separate wells of a 96-well plate, to which different concentrations of Tax (25–200 μM) had been added, then incubated at 37°C for 24 h. Subsequently, the culture medium was replaced with crystal violet to stain the biofilm for 15 min. The wells were then washed thoroughly with sterile deionized PBS three times. The crystal violet stain in each well was decolorized with 200 μL absolute ethanol and then the OD595 value was recorded using a microplate reader.
# (§1) FIGURE 3 Effect of SrtA inhibitor on virulence-related phenotypes in S. aureus Newman strain. (A) Impact of Tax on the ability of S. aureus to adhere to fibrinogen. (B) Biofilm formation of S. aureus in the presence of different concentrations of Tax. (C) Mature biofilms of S. aureus in the presence of different concentrations of Tax. The ΔsrtA group represented the positive control. (D) Tax affects internalization of S. aureus into A549 cells. […] The number of viable S. aureus in the cells was quantified by serial dilution on TSA agar plates. […] Error bars represent means ± SD of three replicates. *P < 0.05, **P < 0.01, ***P < 0.001 calculated with a two-tailed Student’s t-test.
# [3] = tested on: S. aureus mature biofilms; assay: Mature biofilm assay (crystal violet); format: cell-based, Staphylococcus aureus; conditions: 25–200 μM Tax, 24 h
# Protocol: S. aureus biofilms were formed for 24 h at 37°C on the surfaces of the wells of a 96-well plate. Following biofilm formation, different Tax concentrations (25–200 μM) were added to selected wells and the plates were incubated for 24 h at 37°C. The effects of Tax on the mature biofilms were estimated using the crystal violet stain and recorded by a microplate reader.
# FIGURE 3 Effect of SrtA inhibitor on virulence-related phenotypes in S. aureus Newman strain. (A) Impact of Tax on the ability of S. aureus to adhere to fibrinogen. (B) Biofilm formation of S. aureus in the presence of different concentrations of Tax. (C) Mature biofilms of S. aureus in the presence of different concentrations of Tax. The ΔsrtA group represented the positive control. (D) Tax affects internalization of S. aureus into A549 cells. A549 cells were infected with S. aureus pretreated with different concentrations of Tax then lysed 2 h post-infection. The number of viable S. aureus in the cells was quantified by serial dilution on TSA agar plates. (E) Effects of Tax on S. aureus protein A (SpA) using FITC-labeled rabbit IgG. Error bars represent means ± SD of three replicates. *P < 0.05, **P < 0.01, ***P < 0.001 calculated with a two-tailed Student’s t-test.
# [4] = tested on: surface-anchored SpA of S. aureus; assay: FITC-IgG binding assay for staphylococcal protein A (SpA); format: cell-based; conditions: Staphylococcus aureus, read-out: SpA fluorescence, relative activity % of the WT group
# Protocol: Bacterial cultures grown overnight were diluted 1:100 and cultured in an incubator at 37°C with Tax or DMSO to a concentration of 10^8 CFU/mL. The ΔsrtA mutant strain was assayed as a positive control. The bacteria were collected and washed three times in PBS. A 50 μL aliquot of bacterial culture was mixed with an equal volume of FITC-labeled rabbit anti-goat-IgG (1:200, Sigma, United States) then incubated in the dark for 1 h. The bacteria were then washed and suspended in PBS. A multimode microplate reader (Tecan, Spark 20M) was used to measure fluorescence intensity at 535 nm when illuminated at an excitation wavelength of 485 nm.
# as §1
# [5] = tested on: SrtA expression in S. aureus; assay: Western blot analysis of SrtA expression; format: cell-based, Staphylococcus aureus; conditions: 25–200 μM Tax, compared with the untreated group
# Protocol: To evaluate the effect of Tax on SrtA expression, Tax (25–200 μM) was added to different bacterial cultures and incubated overnight at 37°C. Equal quantities of total protein from the bacterial lysates were separated by 12% SDS-PAGE then transferred to a polyvinylidene fluoride (PVDF) membrane using a transblot semidry system. Non-specific binding to the PVDF membrane was prevented by incubating in 5% bovine serum albumin (BSA) overnight at 4°C. The membranes were washed three times with PBST, agitating each time for 5 min, then incubated with rabbit polyclonal antibody (created in the laboratory) against SrtA. Following a further washing in PBST three times, the membranes were incubated with HRP-labeled goat anti-rabbit IgG (Bioworld, China) diluted 1:10,000 in antibody diluent (PBST + 1% BSA) at 37°C for 1 h. ΔsrtA or S. aureus USA300 without Tax was considered the control group. The cytoplasmic protein ClpP was analyzed as an internal control. Blots were visualized using an enhanced chemiluminescence (ECL) detection system (GE Healthcare, United Kingdom), while bands were quantified using ImageQuant TL software (GE Healthcare).
# FIGURE 4 Expression of SrtA in the presence of Tax and the interaction of different concentrations of Tax with SrtA. […] Error bars represent means ± SD of three replicates. ***P < 0.001 calculated with a two-tailed Student’s t-test.
# [6] = biological target: T2, WT-SrtA (Staphylococcus aureus, UniProt Q2FV99); assay: Fluorescence quenching assay, WT-SrtA; format: binding
# T2 construct: 6xHis; made in house; host or cells: E. coli BL21 (DE3), plasmid pET28a-SrtA
# Description: Molecular modeling studies highlight the benefits of performing site-directed mutagenesis studies. Therefore, fluorescence quenching experiments were utilized to determine the binding affinity of Tax with SrtA and SrtA mutants (D170A, Q172A).
structure (smiles),measurement,setting,value
"O=C1c2c(O)cc(O)cc2OC(c2ccc(O)c(O)c2)C1O (stereo not drawn) [Tax, taxifolin]",SrtA activity recovered,[1],85.80 ± 0.67%
same,"biofilm biomass, % of the mass of the untreated control",[2],29.91 ± 0.51%
same,effect on mature biofilms,[3],had no effect
same,activity at 200 µM,[4],36.1 ± 1.59%
same,effect on SrtA expression,[5],no apparent effect
same,Kd,[6],15.6 µM
